Results reported in ChEMBL document CHEMBL3244247, “Beta-Adrenergic blocking agents. 15. 1-Substituted ureidophenoxy-3-amino-2-propanols” (1977).

Key:
Felis catus [1] = assay: In vivo inhibition of beta-2 adrenergic receptor in cat assessed as inhibition of isoproterenol-induced vasodepressor response at ED50 administered as 30 mins of infusion measured at 30 mins relative to control; format: functional
Felis catus [2] = assay: In vivo inhibition of beta-1 adrenergic receptor in cat assessed as inhibition of isoproterenol-induced tachycardia administered as 30 mins of infusion measured at 30 mins by cardiotachometer; format: functional; conditions: 0.5 h

SMILES	inhibition (INH) (Felis catus [1]) [%]	ED50 (Felis catus [2]) [mg/kg]
CC(C)NCC(O)COc1ccc(NC(N)=O)cc1 (centres undefined)	20	0.631
CC(C)(C)NCC(O)COc1ccc(NC(N)=O)cc1 (centres undefined)	0	0.101
CNC(=O)Nc1ccc(OCC(O)CNC(C)C)cc1 (centres undefined)	29	0.07
CNC(=O)Nc1ccc(OCC(O)CNC(C)(C)C)cc1 (centres undefined)	0	0.074
CNC(=O)Nc1ccc(OCC(O)CNC(C)C)c(Cl)c1 (centres undefined)	26	0.104
CNC(=O)Nc1ccc(OCC(O)CNC(C)(C)C)c(Cl)c1 (centres undefined)	52	0.025
CNC(=O)Nc1ccc(OCC(O)CNC(C)C)c(Br)c1 (centres undefined)	63	0.033
CNC(=O)Nc1ccc(OCC(O)CNC(C)C)c(I)c1 (centres undefined)	33	0.1
CNC(=O)Nc1ccc(OCC(O)CNC(C)C)c(C)c1 (centres undefined)	32	0.17
CCCc1cc(NC(=O)NC)ccc1OCC(O)CNC(C)(C)C (centres undefined)	7	0.093
CNC(=O)Nc1ccc(OCC(O)CNC(C)C)c(C(C)=O)c1 (centres undefined)	43	0.395
C=CCc1cc(NC(=O)NC)ccc1OCC(O)CNC(C)(C)C (centres undefined)	74	0.056
CCNC(=O)Nc1ccc(OCC(O)CNC(C)C)cc1 (centres undefined)	0	0.427
CCNC(=O)Nc1ccc(OCC(O)CNC(C)(C)C)cc1 (centres undefined)	34	0.201
CCNC(=O)Nc1ccc(OCC(O)CNC(C)C)c(Cl)c1 (centres undefined)	0	0.188
CCNC(=O)Nc1ccc(OCC(O)CNC(C)C)c(Br)c1 (centres undefined)	19	0.069
CCNC(=O)Nc1ccc(OCC(O)CNC(C)(C)C)c(I)c1 (centres undefined)	6	0.023
CCNC(=O)Nc1ccc(OCC(O)CNC(C)C)c(C)c1 (centres undefined)	27	0.234
CCNC(=O)Nc1ccc(OCC(O)CNC(C)(C)C)c(C)c1 (centres undefined)	58	0.057
CCNC(=O)Nc1ccc(OCC(O)CNC(C)COP)c(C)c1 (centres undefined)	18	0.885
CCNC(=O)Nc1ccc(OCC(O)CNC(C)C)c(CC)c1 (centres undefined)	33	0.118

SMILES	inhibition (INH) (Felis catus [1]) [%]	ED50 (Felis catus [2]) [mg/kg]
CCNC(=O)Nc1ccc(OCC(O)CNC(C)(C)C)c(CC)c1 (centres undefined)	2	0.08
C=CCc1cc(NC(=O)NCC)ccc1OCC(O)CNC(C)C (centres undefined)	68	0.18
C=CCc1cc(NC(=O)NCC)ccc1OCC(O)CNC(C)(C)C (centres undefined)	30	0.038
C=CCc1cc(NC(=O)NCC)ccc1OCC(O)CNC(C)(C)CO (centres undefined)	50	0.224
C=CCc1cc(NC(=O)NCC)ccc1OCC(O)CNC1CC1 (centres undefined)	37	1.14
CCNC(=O)Nc1ccc(OCC(O)CNC(C)C)c(OCC)c1 (centres undefined)	41	0.295
CCNC(=O)Nc1ccc(OCC(O)CNC(C)C)c(O)c1 (centres undefined)	15	0.521
CCNC(=O)Nc1ccc(OCC(O)CNC(C)C)c(SC)c1 (centres undefined)	32	0.198
CCCNC(=O)Nc1ccc(OCC(O)CNC(C)C)cc1 (centres undefined)	0	0.147
CCCNC(=O)Nc1ccc(OCC(O)CNC(C)(C)C)cc1 (centres undefined)	0	0.033
CCCNC(=O)Nc1ccc(OCC(O)CNC(C)C)c(I)c1 (centres undefined)	100	0.077
CCCNC(=O)Nc1ccc(OCC(O)CNC(C)C)c(C)c1 (centres undefined)	59	0.061
CCCNC(=O)Nc1ccc(OCC(O)CNC(C)(C)C)c(C)c1 (centres undefined)	0	0.044
C=CCc1cc(NC(=O)NCCC)ccc1OCC(O)CNC(C)C (centres undefined)	15	0.213
CCCCNC(=O)Nc1ccc(OCC(O)CNC(C)C)cc1 (centres undefined)	0	0.416
CCCCNC(=O)Nc1ccc(OCC(O)CNC(C)(C)C)cc1 (centres undefined)	0	0.048
CCCCNC(=O)Nc1ccc(OCC(O)CNC(C)(C)C)c(Cl)c1 (centres undefined)	0	0.008
CCCCNC(=O)Nc1ccc(OCC(O)CNC(C)C)c(C)c1 (centres undefined)	0	0.046
CCCCNC(=O)Nc1ccc(OCC(O)CNC(C)(C)C)c(C)c1 (centres undefined)	11	0.012
CCCCCCNC(=O)Nc1ccc(OCC(O)CNC(C)C)cc1 (centres undefined)	0	0.274
CCCCCCNC(=O)Nc1ccc(OCC(O)CNC(C)(C)C)cc1 (centres undefined)	30	0.094

SMILES	inhibition (INH) (Felis catus [1]) [%]	ED50 (Felis catus [2]) [mg/kg]
CCCCCCNC(=O)Nc1ccc(OCC(O)CNC(C)C)c(C)c1 (centres undefined)	19	0.189
CCCCCCNC(=O)Nc1ccc(OCC(O)CNC(C)(C)C)c(C)c1 (centres undefined)	50	0.03
CCCCCCNC(=O)Nc1ccc(OCC(O)CNC(C)C)c(C(C)=O)c1 (centres undefined)	0	0.182
CCCCCCCCNC(=O)Nc1ccc(OCC(O)CNC(C)C)c(C)c1 (centres undefined)	28	0.169
CCCCCCCCNC(=O)Nc1ccc(OCC(O)CNC(C)(C)C)c(C)c1 (centres undefined)	11	0.08
CC(C)NC(=O)Nc1ccc(OCC(O)CNC(C)(C)C)cc1 (centres undefined)	24	0.095
Cc1cc(NC(=O)NC(C)C)ccc1OCC(O)CNC(C)C (centres undefined)	57	0.438
Cc1cc(NC(=O)NC(C)C)ccc1OCC(O)CNC(C)(C)C (centres undefined)	5	0.049
C=CCNC(=O)Nc1ccc(OCC(O)CNC(C)C)cc1 (centres undefined)	70	0.262
C=CCNC(=O)Nc1ccc(OCC(O)CNC(C)(C)C)cc1 (centres undefined)	6	0.089
C=CCNC(=O)Nc1ccc(OCC(O)CNC(C)C)c(Cl)c1 (centres undefined)	43	0.131
C=CCNC(=O)Nc1ccc(OCC(O)CNC(C)(C)C)c(Cl)c1 (centres undefined)	19	0.022
C=CCNC(=O)Nc1ccc(OCC(O)CNC(C)C)c(C)c1 (centres undefined)	12	0.107
C=CCNC(=O)Nc1ccc(OCC(O)CNC(C)(C)C)c(C)c1 (centres undefined)	32	0.045
CC(C)(C)NCC(O)COc1ccc(NC(=O)Nc2ccc(Cl)cc2)cc1 (centres undefined)	39	0.403
CC(C)NCC(O)COc1ccc(NC(=O)NC2CCCCC2)cc1Cl (centres undefined)	14	0.252
CCNC(=O)Nc1ccccc1OCC(O)CNC(C)C (centres undefined)	103	3.24
CC(C)NCC(O)COc1cccc(NC(N)=O)c1 (centres undefined)	58	0.028
CC(=O)Nc1ccc(OCC(O)CNC(C)C)cc1 (centres undefined) [PRACTOLOL]	8	0.167
CC(C)NCC(O)COc1cccc2ccccc12 (centres undefined) [PROPRANOLOL]	85	0.062
